Results reported in patent publication US7687512B2, “Use of pyridinyl-pyrimidinylamino-benzamide derivatives for the treatment of amyloid related disorders” (Novartis AG, priority 2003, dated 2010).

Tests used:
HEK/APPswe cells = settings: HEK/APPswe cell cultures, at concentrations below 10 microM
Description: To determine cytotoxicity, cells are tested by the MTS colorimetric kit performed essentially according to the manufacturer's specifications (Promega, #G5430X). After collecting the conditioned medium for the sandwich ELISA, the rest of the conditioned medium is removed completely and replaced with 100 μl/well culture medium containing one fifth of MTS solution prepared as recommended in the kit. After 3 hours incubation at 37° C., absorbance is read at an OD of 490 nm with a reference wavelength set to 630 nm. Values are given as % metabolic rate (n=6). The 0% value is calculated from wells which had no cells, 100% from wells with an untreated cell layer

Abeta secretion = settings: HEK/APPswe cell cultures, at concentrations below 10 microM
Description: HEK/APPswe cells are plated in microtiter plates precoated with 10 μg/ml poly-D-lysine at 12,000 cells/well in 100 μl/well DMEM medium supplemented with 10% FCS, 0.25 mg/ml G418 sulfate, 1% penicillin streptomycin. The following day, supernatant is replaced with 90 μl/well of fresh medium and 10 μl/well of compound diluted in culture medium are added. Two types of control wells are used: cell culture medium without cells plus 10 μl/well of all compound dilutions (background signals) and cell culture medium from untreated cells (positive control). 24 hours later after compound addition, conditioned medium is collected and Aβ levels determined by a specific sandwich ELISA.
For the sandwich ELISA, the maxisorp microtiterplates are coated overnight at 4° C. with 100 μl/well of the monoclonal antibody 25H10 diluted 1:1000 in PB for Aβ40 detection or monoclonal antibody B10E7 diluted 1:2750 for detection of Aβ42. […] After 1 hour incubation at room temperature wells are washed as described above and alkaline phosphatase activity is determined by adding 100 μl/well of diethanolamine buffer, pH 9.8 (100 mM diethanolamine, 1 mM MgCl2, pH adjusted to 9.8 with 2 M HCl) containing the chemiluminescent CSPD substrate (25 mM stock solution diluted 1:416) and the enhancer Emerald II (diluted 1:10). […] Samples are measured in triplicate. […]

Cc1cn(-c2cc(NC(=O)c3ccc(C)c(Nc4nccc(-c5cccnc5)n4)c3)cc(C(F)(F)F)c2)cn1 [Example 2, 4-Methyl-N-[3-(4-methyl-imidazol-1-yl)-5-trifluoromethyl-phenyl]-3-(4-pyridin-3-yl-pyrimidin-2-ylamino)-benzamide]
effect on cellular viability (HEK/APPswe cells): without having any effect | reduction of Abeta secretion in the medium (Abeta secretion): clear reduction
